These results are taken from patent publication EP4778929A1, “NOVEL TYPE I TOPOISOMERASE INHIBITOR, AND PREPARATION METHOD THEREFOR AND USE THEREOF” (priority 2023, dated 2025).

Data set [1] relates to Human colon cancer HCT116 cells. The data set can be described thus: Subcutaneous xenograft model of human colon cancer HCT-116 cells. In kind it is in vivo, BALB/c nude mice. The following applies: day 21 post-treatment, 5 mg/kg, IV, BIW×3W. As to the method: Test Example 4. Pharmacodynamic Evaluation of Compound 2, Compound 250, and Compound 253 in a Subcutaneous Xenograft Model of Human Colon Cancer HCT-116 Cells in BALB/c Female Nude Mice
Human colon cancer HCT116 cells were cultured in vitro as monolayers in McCoys 5a medium supplemented with 10% fetal bovine serum and 1% penicillin/streptomycin/amphotericin B at 37 °C in a 5% CO2 incubator. Cells were routinely passaged twice a week using trypsin-EDTA digestion. When cells reached 80%-90% confluence and the required cell number was achieved, cells were harvested. HCT116 cells (0.1 mL, 5×10^6 cells) were subcutaneously inoculated into the right dorsal region near the upper forelimb of each mouse (BALB/c nude mice, female, 6-8 weeks old). Treatment was initiated when the average tumor volume reached approximately 158 mm^3. Tumor volume was measured twice weekly. At the end of the experiment, the tumor growth inhibition rate (TGI) was calculated as: TGI (%) = [1 - (average tumor volume at the end of treatment in a particular group - average tumor volume at the start of treatment in that group) / (average tumor volume at the end of treatment in the vehicle control group - average tumor volume at the start of treatment in the vehicle control group)] × 100%.
(§1) Experimental Groups and Dosing Regimen:
• 1, Vehicle control group • 2, Compound 2, 5 mg/kg, IV, BIW×3W • 3, Compound 250, 5 mg/kg, IV, BIW×3W • 4, Compound 253, 5 mg/kg, IV, BIW×3W
(In general: In xenograft studies the graft and the host belong to different species.)

Data set [2] can be described thus: Pharmacokinetic study in mice, plasma concentrations by LC-MS/MS. The settings on record: mouse, in vivo. The protocol: Test Example 3. Pharmacokinetic Study for Determining Compound Concentrations in Mice by LC-MS/MS
Principle: LC-MS/MS is used to quantify the plasma concentrations of the test article at successive time points, generating an in-vivo pharmacokinetic profile.
Procedure: The test compound was dissolved in DMSO to prepare a 10 mg/mL stock solution. This stock was further diluted to 1 mg/mL with a vehicle consisting of 10 % DMSO + 10 % Solutol HS-15 + 80 % saline. Male CD-1 mice (JH Laboratory Animal Co., LTD) were employed; six animals were assigned per compound group. […] Serial blood samples (~50 µL whole blood, K2EDTA anticoagulant) were collected at 0.083, 0.25, 0.5, 1, 2, 4, 8 and 24 h (three mice per time point in a crossover design). Blood was centrifuged at 6 000 g for 5 min at 4 °C; plasma was harvested and stored at -70 °C until analysis. Plasma drug concentrations were determined by LC-MS/MS.
Calibration Curve and QC Preparation: Working solutions were prepared by dilution with MeOH:H2O (1:1). For each calibration or QC level, 3 µL of working solution was spiked into 57 µL of blank mouse plasma.
Sample Processing: To 30 µL of plasma was added 200 µL of methanol containing the internal standard (propranolol, 40 ng mL^-1). After vortex-mixing for 1 min, the mixture was centrifuged at 12 000 rpm for 10 min. A 100 µL aliquot of the supernatant was transferred to a clean plate for injection.
Pharmacokinetic Analysis: Concentration-time data were analyzed with WinNonlin 8.2 using a non-compartmental approach to derive PK parameters including Cmax, Tmax, AUC and terminal elimination half-life (t1/2). AUC was calculated by the linear-up/log-down trapezoidal method. Table 3. Pk parameters of compounds

For data set [3], the system named is Human colon cancer CR00090 cells. The data set can be described thus: CR00090 human colon cancer model (subcutaneous). In kind it is in vivo, NPSG mice. The following applies: day 28 post-treatment, 5 mg/kg, IV, BIW×4W. As to the method: Test Example 5: Pharmacodynamic Evaluation of Compound 117, Compound 250, and Compound 253 in the CR00090 Human Colon Cancer Model
Human colon cancer CR00090 cells were thawed, counted, and mixed with Matrigel at a 1:1 ratio. Then, 0.1 mL (5×10^5 cells) of CR00090 cells were subcutaneously inoculated into the right dorsal region near the upper forelimb of each mouse (NPSG mice, female, 6-8 weeks old). Treatment was initiated when the average tumor volume reached approximately 84 mm^3. Tumor volume was measured twice weekly. At the end of the experiment, the tumor growth inhibition rate (TGI) was calculated as: TGI (%) = [1 - (average tumor volume at the end of treatment in a particular group - average tumor volume at the start of treatment in that group) / (average tumor volume at the end of treatment in the vehicle control group - average tumor volume at the start of treatment in the vehicle control group)] × 100%.
as §1
• 1, Vehicle control group • 2, Compound 117, 5 mg/kg, IV, BIW×4W • 3, Compound 250, 5 mg/kg, IV, BIW×4W • 4, Compound 253, 5 mg/kg, IV, BIW×4W

For the compound `CC[C@@]1(O)C(=O)OCc2c1cc1n(c2=O)Cc2c-1c(=O)c1cc(F)cc(C)c1n2C` [Example 2, (S)-4-ethyl-8-fluoro-4-hydroxy-10,11-dimethyl-1,12-dihydro-14H-pyrano[3,4:6,7]indolizino[2,1-b]quinoline-3,6,14(4H,11H)-trione], the TGI in data set [1] is on record as 81.9%. This compound also returned a tumor volume in data set [1] (vehicle control 1146 mm^3) of 335 mm^3. Further, in data set [2] (iv, 2 mg/kg), the AUC(0-t) at 24 h was 323 ng·h/mL, the highest level (Cmax) was 604 ng/mL, the clearance was found to be 110 mL/min/kg and the half-life was 69.6 min. Further, in data set [2] (po, 20 mg/kg), the AUC(0-t) at 24 h worked out at 911 ng·h/mL, the Cmax amounted to 956 ng/mL, the Tmax amounted to 25.2 min and the bioavailability worked out at 28.5%. In data set [2] (po, 20 mg/kg), this compound showed a half-life of 135 min.

The compound `CC[C@@]1(O)C(=O)OCc2c1cc1n(c2=O)Cc2c-1c(=O)c1cc(F)ccc1n2CCN(C)C1CCCC1` [Example 117] had a TGI in data set [3] of 82.4%. This compound also gave a tumor volume in data set [3] (vehicle control 1093 mm^3) of 262 mm^3. In data set [2] (iv, 1 mg/kg), this compound showed an AUC(0-t) at 24 h of 38.7 ng·h/mL, a Cmax of 107 ng/mL, a clearance of 439 mL/min/kg and a half-life of 14.1 min.

The AUC(0-t) is exposure summed from dosing to a finite time, without extrapolation to infinity. As usually defined, the Cmax is the peak of the concentration-time curve. Usually clearance stands for the rate of elimination divided by the concentration. Higher therefore signals efficient removal. A word on the half-life: it is the time needed for the level to fall by half in the phase considered. A higher half-life goes with slow loss. What is called Tmax is the time at which the peak concentration occurs. A word on the bioavailability: it is the share of a dose that reaches the circulation, judged against a reference dose that is usually intravenous. Higher therefore signals good availability.
